# Patent US8173668B1 (Alcon Research, Ltd., priority 2007, dated 2012)
# Legend:
# guinea pigs = assay: IOP-lowering activity in guinea pigs; assay type: in vivo
# From the text: Some obvious drawbacks and reasons for the lack of consistent observations noted above are probably related to species differences in the effects of BK on IOP changes and on the fact that BK is a labile peptide that can easily and rapidly be inactivated by kininases and other proteases when it comes into contact with body fluids (Hall, Pharmacol. Ther., 56, 131-190, 1992). Additionally, topical ocular administration of peptides such as BK are confounded by the potential lack of or little bioavailability through the cornea to reach the anterior segment of the eye. […] This is probably related to the attainment of a relevant concentration in the aqueous humor and ciliary body when the compound was administered topical ocularly.
# [1] = test system: ocular hypertensive eyes of ketamine-sedated cynomolgus monkeys; assay: Aqueous humor dynamics (fluorophotometry, tonography) in ketamine-sedated cynomolgus monkeys; assay type: in vivo; conditions: Treatment Day, Hypertensive Eye OS; one drop of 30 μl 0.01% the day before; mean ± SD
# From the text: Methods used in this Example were described by Yablonski et al. Invest Ophthalmol V is Sci 1987; 28:2076-2082; Hayashi et al. Exp Eye Res 1989; 48:621-625; Mäepea et al. Exp Eye Res 1989; 49:645-663, and as below:
# Twelve female cynomolgus monkeys between the ages of 5 and 8 years were included in the study. All had unilateral laser treatment to the trabecular meshwork of the left eye. Lasering had been done between 2 and 4 years before the study.
# Measurements were made on baseline day and after AL-42205-01 (FR-190997) treatment to both eyes. When necessary, sedation was induced by ketamine hydrochloride (HCl), 1 to 5 mg/kg, administered intramuscularly 5 minutes before a measurement to achieve pharmacological restraint. Animals were seated in specially designed chairs for all tonometry and fluorophotometry measurements. Fifteen hours prior to each study day, IOP1 was measured with a pneumatonometer (Classic 30, Xomed, Jacksonville, Fla.) after topical application of proparacaine HCl, 0.13%. Fluorescein (10%) was applied to the cornea by topical drops. Measurements commenced at 8:30-9:00 a.m. the following day with tonometry (IOP2). The fluorescence of the cornea and anterior chamber were measured in duplicate with a scanning fluorophotometer (Fluorotron, OcuMetrics, Palo Alto, Calif.). Scans were taken at 45 minute intervals for a total of 4 sets.
# After the fourth set of scans and another IOP measurement (IOP3), an intramuscular injection of acetazolamide (12-20 mg/kg) was administered to reduce IOP by reducing aqueous flow. The dose of acetazolamide for individual monkeys depended on its IOP efficacy in previous studies. Fluorophotometric scans and IOP measurements were repeated 0.75, 1.50 and 2.25 hours after acetazolamide injection. Fluorophotometric outflow facility (Cfl) was calculated as the ratio of the change in aqueous flow to the change in IOP. Uveoscleral outflow (Fus) was calculated by the equation Fus=Fa−Cfl (IOP3−Pev) where Pev is the episcleral venous pressure. A value of 15 mmHg was used. The final measurement was two-minute tonography. The tonography mode of the pneumatonometer was used. Calculations were made using PowerLab and Excel.
# Treatment measurements were collected between 6 and 21 days after baseline measurements. The day before the measurement day, conscious IOP was measured (IOP1; 9:00 AM) and one drop of 30 μl of AL-42205-01 0.01% (in matrix vehicle) was applied to both eyes. The drug was used within a week of receipt. It was stored refrigerated before use. Conscious IOP was measured again (IOP2; 5 PM) just before fluorescein was applied as before. The day of fluorophotometry, all measurements were made under sedation as on baseline day.
# Values were compared between eyes on each day and baseline values were compared with post-treatment values using Student's two-tailed paired t-test (Table 11). Values are reported as means± standard deviation (SD).
# [2] = test system: hypertensive eyes of cynomolgus monkeys; assay: IOP in lasered (hypertensive) eyes of cynomolgus monkeys, single dose (FIG. 9); assay type: in vivo; conditions: IOP at 8, 25 and 27.5 hours
# Protocol: Hours 5 and 8 were conscious IOPs. Hours 25 and 27.5 were made under sedation. […] Error bars indicate standard deviations.
# Intraocular pressure (IOP) was determined with an Alcon Pneumatonometer (Alcon Laboratories, Inc., Fort Worth, Tex.) after light corneal anesthesia with 0.1% proparacaine. Right eyes were hypertensive as a result of laser trabeculoplasty. After a baseline IOP measurement, FR-190997 was instilled in the right eyes only of 12 cynomolgus monkeys. Vehicle was instilled in the right eyes of 5-6 additional animals. Subsequent IOP measurements were taken at 8, 25, and 27.5 hours. IOP measurements are also taken on left eyes (normotensive and untreated) at each of these time points. The percent change in IOP from baseline was determined for each animal for every IOP measurement (Sharif et al. J. Ocular Pharmacol. Ther. 17: 305-317, 2001; May et al., J Pharmacol Exp Ther. 306: 301-309, 2003; Sharif et al. Invest. Ophthalmol. Vis. Res. 47: 4001-4010, 2006). Group mean and standard error of the mean (SEM) were calculated for each time point.
# [3] = test system: Human trabecular meshwork (TM) cells; assay: PGE2 production (RIA) in human trabecular meshwork cells; assay type: cell-based; conditions: 1 h at 37° C., BK 100 nM or 1 μM, fluprostenol 1 μM, non-peptide agonists 1 μM or 10 μM, FIG. 6
# Protocol: The ability of BK agonists to stimulate prostaglandin E2 (PGE2) production was examined as follows. Human trabecular meshwork (TM) cells were seeded in culture plates and allowed to reach confluence. […] Fluprostenol was used as a positive control. After this time the assay was terminated by placing the assay plates on ice and by the addition of 100 μL of a cell-lysis reagent supplied with the PGE2 radioimmunoassay (RIA) kit (Amersham Pharmacia Biotech, Arlington Heights, Ill.). All reagents and standards supplied in the RIA kit were prepared and the RIA performed according to the manufacturer's instructions. Assay buffer, diluted prostaglandin E2 (PGE2) standard and supernatant from the cell-based experiment (diluted 1:100 v/v) were then pipetted into appropriate tubes as specified in the kit instructions. […]
# After this incubation, all tubes were placed in an ice-bath and 1 ml cold precipitating reagent supplied in the kit was added to the tubes, the content mixed and incubated for 25 min at 4° C. […] The supernatants of all tubes were decanted as specified in the kit instructions and the RIA samples analyzed on a gamma-counter. The levels of PGE2 generated by the test agent were then quantified in comparison with the PGE2-standard curve. Dose-response data for the test agent were constructed and the potency and intrinsic activity determined as described above for other assays.
smiles,measurement,setting,value
CNC(=O)c1ccc(/C=C/C(=O)NCC(=O)N(C)c2ccc(Cl)c(COc3cccc4c(OCc5ccccn5)cc(C)nc34)c2Cl)cc1 [FR-190997],ability to lower IOP,guinea pigs,unable to lower IOP
same,"Cfl, fluorophotometric outflow facility",[1],0.18 ± 0.16 μl/min/mmHg
same,"Cton, tonographic outflow facility",[1],0.17 ± 0.11 μl/min/mmHg
same,"Fa, aqueous flow",[1],1.48 ± 0.53 µL/min
same,"Fufl, uveoscleral outflow calculated with Cfl",[1],1.23 ± 0.91 µL/min
same,"Futon, uveoscleral outflow calculated with Cton",[1],1.45 ± 0.45 µL/min
same,effect on IOP compared with vehicle,[2],lowered IOP compared with vehicle
same,production of endogenous prostaglandins (PGE2),[3],stimulated production of endogenous prostaglandins
